“Also recorded” adds a separate entry of the source. Where two headings read alike, the source gives them in different places. Where no end group is shown, it is not given here. [ ]: non-standard residue; d: D form.
Experiments:
[1] = molecular target: CCR5 receptor on human monocytes (human) (UniProt P51681); assay: cell-based or functional assay
CCR2 [2] = molecular target: T1, CCR2 (Homo sapiens, UniProt P41597); assay: CCL2 (MCP-1) elicited chemotaxis of human monocytes; assay type: cell-based; set-up: endogenous in cells; host or cells: human monocytes; conditions: FIG. 3; methods similar to FIG. 2; low concentration
T1 sequence (P41597 1-360 isoform P41597-2): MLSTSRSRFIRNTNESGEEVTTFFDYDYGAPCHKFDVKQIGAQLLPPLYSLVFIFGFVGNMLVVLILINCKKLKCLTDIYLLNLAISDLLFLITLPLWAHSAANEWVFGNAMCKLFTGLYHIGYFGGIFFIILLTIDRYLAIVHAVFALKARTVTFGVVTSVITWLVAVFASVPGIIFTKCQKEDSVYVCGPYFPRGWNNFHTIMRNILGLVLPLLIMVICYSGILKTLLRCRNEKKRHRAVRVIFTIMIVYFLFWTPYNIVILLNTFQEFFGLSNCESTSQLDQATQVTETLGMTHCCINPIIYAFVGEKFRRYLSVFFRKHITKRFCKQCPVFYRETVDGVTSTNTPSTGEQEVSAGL
Method: Monocytes were treated with the indicated doses of RAP-103 for 30 min before chemotaxis against human CCL2 (MCP-1) or CCL4 (MIP-1β) (both 50 ng/mL) for 90 min. Data (chemotactic index) are presented as mean ±SEM. The chemotactic index for MCP-1 without RAP-103 was 2.5-3.5 times over control, whereas for MIP-1 ? without RAP-103, it was approximately 2 times over control. Data are presented as mean ±SEM. (*P<0.05, **P<0.01 vs RAP-103 untreated). Data are from (12), FIG. 1. […] Dual-chemokine CCR2/CCR5 receptor antagonists may have added therapeutic value by blocking multiple inflammatory pathways.
The methods employed are similar to those in FIG. 2.

TLR4/MyD88 [3] = conditions: iDCs, peptide 10-12 M for 30 min, then LPS 100 ng/ml, 48 hrs
Method: (§1) To determine whether all-D-TTNYT (SEQ ID NO:1) blocks maturation of antigen-presenting dendritic cells, human PBMC's were isolated from peripheral blood by Ficoll-Paque centrifugation and then monocytes were isolated by negative selection using immunobeads (Miltenyi). Human monocyte derived immature dendritic cells (iDCs) were then generated by treating monocytes with GM-CSF/IL4.
The iDCs were treated with all-D-TTNYT (SEQ ID NO:1), generic name RAP103 (12), at 10-12 M for 30 min. After 30 min LPS (100 ng/ml) was added to the cells and cells were analyzed after 48 hrs. for surface maturation markers using fluorescent labeled antibodies by flow cytometry.

[4] = molecular target: insulin-like growth factor 1 receptor (IGF-1R) (Homo sapiens, UniProt P08069)
Method: as §1
The iDCs were treated with all-D-TTNYT (SEQ ID NO:1), generic name RAP103 (12), at 10-12 M for 30 min. […]

CCR5 [5] = molecular target: CCR5 (Homo sapiens, UniProt P51681); conditions: 30 min pretreatment, CCL4 50 ng/mL for 90 min, FIG. 2, cited from earlier work
CCR2 [6] = molecular target: T1, CCR2; conditions: 30 min pretreatment, CCL2 50 ng/mL for 90 min, FIG. 2, cited from earlier work
MCP-1 (CCL2) = conditions: Rat, nerve injured, oral gavage 0.05-1 mg/kg for 7 days, M1
Excerpt: (§2) The specific experimental details are provided in Padi, 2012 (12).

TNFα [7] = conditions: Rat, nerve injured, oral gavage 0.05-1 mg/kg for 7 days, M1
Excerpt: as §2

MIP-1α (CCL3) = conditions: Rat, nerve injured, oral gavage 0.05-1 mg/kg for 7 days, M1
Excerpt: as §2

IL-6 [8] = conditions: Rat, nerve injured; oral gavage 0.05-1 mg/kg for 7 days; M1
Excerpt: as §2

IL-1β = conditions: Rat, nerve injured, oral gavage 0.05-1 mg/kg for 7 days, M1
Excerpt: as §2

CCR5 [9] = conditions: Rat, nerve injured, oral gavage 0.05-1 mg/kg for 7 days, M1
Excerpt: as §2

CCR2 [10] = conditions: Rat, nerve injured, oral gavage 0.05-1 mg/kg for 7 days, M1
Excerpt: as §2

NFkB = conditions: Hu; phenotype M1; cited from earlier work
STAT3 = conditions: Hu; phenotype M1; cited from earlier work
activated microglia = assay: Pre-clinical animal models: neuron loss with aging, activated microglial neurotoxicity; assay type: in vivo
Excerpt: In humans DAPTA improved cognition, speed of information processing and functional brain imaging in neuro-AIDS (24, 25). Therefore, it is believed that the compounds according to the present invention have a strong potential to improve cognitive deficits in the indicated conditions due to shared neurodegenerative inflammatory mechanisms.

[11] = humans, neuro-AIDS; cited from earlier work
CCL5 = conditions: mouse synaptosomes; cited from earlier work
TNFα [12] = conditions: Hu; phenotype M1; cited from earlier work
IL-8 = conditions: Hu; phenotype M1; cited from earlier work
ICAM-1 = conditions: Hu; phenotype M1; cited from earlier work
IL-4 = conditions: Hu; phenotype M2; cited from earlier work
IL-23 = conditions: Hu; phenotype M1; cited from earlier work
IL-6 [13] = conditions: Hu; phenotype M1; cited from earlier work
IL-1 = conditions: Hu; phenotype M1; cited from earlier work
TLR4/MyD88 [14] = conditions: Rat; phenotype M1; cited from earlier work
IL-13 = conditions: Hu; phenotype M2; cited from earlier work
IL-10 = conditions: Hu; phenotype M2; cited from earlier work
response to bradykinin = conditions: amounts up to 50,000 times the standard challenge of bradykinin; cited from earlier work
[15] = molecular target: CCR2 receptor on human monocytes (human) (UniProt P41597); assay: cell-based or functional assay
[16] = listed as all-D-pentapeptide TTNYT

Chain of CCR5 (Homo sapiens, UniProt P51681) (P51681 whole entry): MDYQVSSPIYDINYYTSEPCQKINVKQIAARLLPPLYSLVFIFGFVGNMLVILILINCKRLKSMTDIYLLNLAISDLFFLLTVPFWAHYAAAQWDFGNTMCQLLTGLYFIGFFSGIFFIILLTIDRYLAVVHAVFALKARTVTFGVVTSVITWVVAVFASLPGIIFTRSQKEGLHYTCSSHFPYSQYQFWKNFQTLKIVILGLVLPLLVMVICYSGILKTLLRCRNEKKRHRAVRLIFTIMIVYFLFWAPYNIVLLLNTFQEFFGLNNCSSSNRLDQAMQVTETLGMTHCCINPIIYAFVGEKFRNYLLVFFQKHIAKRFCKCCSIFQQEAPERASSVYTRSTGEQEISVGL
Chain of insulin-like growth factor 1 receptor (IGF-1R) (P08069 31-736 limits assumed): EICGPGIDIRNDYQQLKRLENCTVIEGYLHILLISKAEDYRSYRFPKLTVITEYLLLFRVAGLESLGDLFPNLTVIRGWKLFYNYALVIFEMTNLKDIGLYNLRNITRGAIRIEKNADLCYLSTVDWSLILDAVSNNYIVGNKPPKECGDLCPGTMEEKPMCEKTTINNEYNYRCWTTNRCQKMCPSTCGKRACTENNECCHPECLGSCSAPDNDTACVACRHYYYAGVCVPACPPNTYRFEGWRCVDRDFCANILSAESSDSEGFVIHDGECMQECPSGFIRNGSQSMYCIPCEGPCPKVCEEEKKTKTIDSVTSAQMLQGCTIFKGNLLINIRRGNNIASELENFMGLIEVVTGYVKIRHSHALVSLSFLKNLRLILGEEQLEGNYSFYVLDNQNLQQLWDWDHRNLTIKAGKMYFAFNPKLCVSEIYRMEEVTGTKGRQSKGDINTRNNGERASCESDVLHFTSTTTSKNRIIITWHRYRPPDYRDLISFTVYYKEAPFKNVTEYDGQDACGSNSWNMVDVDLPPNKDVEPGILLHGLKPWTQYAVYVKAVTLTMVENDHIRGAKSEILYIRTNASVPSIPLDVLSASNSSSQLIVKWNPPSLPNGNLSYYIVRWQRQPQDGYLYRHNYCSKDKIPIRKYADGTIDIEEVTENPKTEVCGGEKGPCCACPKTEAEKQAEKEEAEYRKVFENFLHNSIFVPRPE

For “CCL4 (MIP-1β) (from UniProt P13236 24-92) (ligand)”, which chemotactic index of human monocytes, without RAP-103 (times over control) [1] is on record?
The chemotactic index of human monocytes, without RAP-103 (times over control) was 2.

With “all-D-SSTYR: all-D-version of DAPTA related pentapeptide SSTYR ([dS][dS][dT][dY][dR])” as the substance, how does the “CCL2 (MCP-1) human monocyte chemotaxis” value (CCR2 [2]) read?
Its value is “antagonists”.

Which results are given for all-D-TTNYT?
CD58 (adhesion molecule) expression (TLR4/MyD88 [3]): reduced; CD86 expression (TLR4/MyD88 [3]): reduced; HLA-DR expression (TLR4/MyD88 [3]): reduced; ICAM1 (adhesion molecule) expression (TLR4/MyD88 [3]): reduced; TLR4-mediated maturation of antigen presenting dendritic cells (TLR4/MyD88 [3]): blocks; DC maturation of these four markers caused by LL37 [4]: no effect; MIP-1β (CCL4)-elicited chemotaxis of human monocytes (CCR5 [5]): potently blocking; MIP-1β (CCL4)-elicited chemotaxis of human monocytes (CCR5 [5]; listed as RAP-103): dual-antagonist; MCP-1 (CCL2)-elicited chemotaxis of human monocytes (CCR2 [6]): potently blocking; MCP-1 (CCL2)-elicited chemotaxis of human monocytes (CCR2 [6]; listed as RAP-103): dual-antagonist; MCP-1 (CCL2) Change (MCP-1 (CCL2)): decrease; MCP-1 (CCL2) Change (MCP-1 (CCL2); [16]): lowering; TNFα Change (TNFα [7]): decrease; TNFα Change (TNFα [7]; [16]): lowering; MIP-1α (CCL3) Change (MIP-1α (CCL3)): decrease; MIP-1α (CCL3) Change (MIP-1α (CCL3); [16]): lowering; IL-6 Change (IL-6 [8]): decrease; IL-1β Change (IL-1β): decrease; IL-1β Change (IL-1β; [16]): lowering; CCR5 Change (CCR5 [9]): decrease; CCR5 Change (CCR5 [9]; [16]): lowering; CCR2 Change (CCR2 [10]): decrease; CCR2 Change (CCR2 [10]; [16]): lowering

For “all-D-TTSYT: all-D-version of DAPTA related pentapeptide TTSYT ([dT][dT][dS][dY][dT])”, which “CCL2 (MCP-1) human monocyte chemotaxis” value (CCR2 [2]) is on record?
Its value is “antagonists”.

What does the source list for Dala1-peptide T-amide [DAPTA]?
NFkB Change (NFkB): decrease; STAT3 Change (STAT3): decrease; activated microglial mediated neurotoxicity and release of cytokines and chemokines (activated microglia): blocked; loss of neurons with aging (activated microglia): prevented; cognition [11]: improved; functional brain imaging [11]: improved; speed of information processing [11]: improved; CCL5 facilitated release of aspartate (CCL5): blocked; TNFα Change (TNFα [12]): reduced; also recorded: decrease; IL-8 Change (IL-8): reduced; also recorded: decrease; ICAM-1 Change (ICAM-1): decrease; IL-4 Change (IL-4): elevated; also recorded: increase; IL-23 Change (IL-23): decrease; IL-6 Change (IL-6 [13]): reduced; also recorded: decrease; IL-1 Change (IL-1): reduced; also recorded: decrease; TLR4/MyD88 Change (TLR4/MyD88 [14]): decrease; IL-13 Change (IL-13): elevated; also recorded: increase; IL-10 Change (IL-10): elevated; also recorded: increase

With all-D-bradykinin as the substance, how does the “inhibition of the response to bradykinin or bradykinin-like effect” value (response to bradykinin) read?
Its value is “neither any inhibition of the response to bradykinin, or any bradykinin-like effect”.

With “human CCL2 (MCP-1) (from UniProt P13500 24-99) (ligand)” as the substance, how does the chemotactic index of human monocytes, without RAP-103 (times over control) [15] read?
Its chemotactic index of human monocytes, without RAP-103 (times over control) is 2.5 to 3.5.

With “all-D-NTSYR: all-D-version of DAPTA related pentapeptide NTSYR ([dN][dT][dS][dY][dR])” as the substance, how does the “CCL2 (MCP-1) human monocyte chemotaxis” value (CCR2 [2]) read?
The value was “antagonists”.

— patent US20190022166A1, “ORAL ANTI-INFLAMMATORY PEPTIDES TO TREAT EPILEPSY, SEIZURES AND CNS DISORDERS” (Creative Bio-Peptides Inc., priority 2017, published 2019)
